According to patent US20210046195A1, “FORMULATION AND METHOD OF PREPARATION” (GE HEALTHCARE AS, priority 2018, published 2021):
Bridge positions count the residues as written; N and C are the ends. Cy5∗∗ = not defined here

Key:
HCT-15 tumours = experiment: In vivo testing in HCT-15 tumour-bearing nude mice, fluorescence imaging through laparoscope; set-up: species or system BALB c/A nude (Bom) mice; conditions: 1 nmol per animal i.v.; excised tumour slice against normal colon
Text: 54 Female BALB c/A nude (Bom) mice were used in the study. The use of the animals was approved by the local ethics committee. BALB c/A nude is an inbred immunocompromised mouse strain with a high take rate for human tumours as compared to other nude mice strains. The mice were 4 weeks old upon arrival and with a body weight of approx. 20 grams at the start of the study. The animals were housed in individually ventilated cages (IVC, Scanbur BK) with HEPA filtered air. The animals had ad libitum access to “Rat and Mouse nr. 3 Breeding” diet (Scanbur BK) and tap water acidified by addition of HCl to a molar concentration of 1 mM (pH 3.0).
The colon cancer cell HCT-15 is derived from human colon carcinomas and is reported to express cMet according to Zeng et al [Clin. Exp. Metastasis, 21, 409-417. (2004)]. The cell line was proven to be tumorigenic when inoculated subcutaneously into nude mice [Flatmark et al, Eur. J. Cancer 40, 1593-1598 (2004)]. […]
Imaging was performed through a clinical laparoscope adapted to use a light source to excite the reporter and a filtering system to extract the fluorescence component. […]
Standard exposure time for colon imaging was 10 s. […] The images were visually scored using the standard scoring system employed for receiver operating characteristic analysis.

mouse cMet/Fc chimera = target: T1, mouse cMet/Fc chimera (Mus musculus, UniProt P16056); experiment: In vitro fluorescence polarisation assay, mouse cMet; type: binding; conditions: dye-labelled peptide 20 nM; mouse cMet/Fc chimera 0-150 nM (tested range)
T1 construct: Fc (immunoglobulin Fc fusion partner); purchased R&D Systems
Experimental: The principle of the fluorescence polarisation method can briefly be described as follows:
Monochromatic light passes through a […] polarizing filter and excites fluorescent molecules in the sample. Only those molecules that oriented properly in the vertically polarized plane adsorb light, become excited, and subsequently emit light. The emitted light is measured in both horizontal and vertical planes. The anisotropy value (A), is the ratio between the light intensities following the equation:
A=(Intensity with horizontal polarizer−Intensity with vertical polarizer)/(Intensity with horizontal polarizer+2* Intensity with vertical polarizer).
The fluorescence anisotropy measurements were performed in 384-well microplates in a volume of 10 μL in binding buffer (PBS, 0.01% Tween-20, pH 7.5) using a Tecan Safire fluorescence polarisation plate reader (Tecan, US) at ex646/em678 nm. The concentration of dye-labelled peptide was held constant (20 nM) and the concentrations of the human or mouse cMet/Fc chimera (R&D Systems) or Semaphorin 6A (R&D Systems) were varied from 0-150 nM. Binding mixtures were equilibrated in the microplate for 10 min at 30° C. The observed change in anisotropy was fit to the equation: […]

T1 sequence (P16056 with tags, fused parts or gaps limits assumed): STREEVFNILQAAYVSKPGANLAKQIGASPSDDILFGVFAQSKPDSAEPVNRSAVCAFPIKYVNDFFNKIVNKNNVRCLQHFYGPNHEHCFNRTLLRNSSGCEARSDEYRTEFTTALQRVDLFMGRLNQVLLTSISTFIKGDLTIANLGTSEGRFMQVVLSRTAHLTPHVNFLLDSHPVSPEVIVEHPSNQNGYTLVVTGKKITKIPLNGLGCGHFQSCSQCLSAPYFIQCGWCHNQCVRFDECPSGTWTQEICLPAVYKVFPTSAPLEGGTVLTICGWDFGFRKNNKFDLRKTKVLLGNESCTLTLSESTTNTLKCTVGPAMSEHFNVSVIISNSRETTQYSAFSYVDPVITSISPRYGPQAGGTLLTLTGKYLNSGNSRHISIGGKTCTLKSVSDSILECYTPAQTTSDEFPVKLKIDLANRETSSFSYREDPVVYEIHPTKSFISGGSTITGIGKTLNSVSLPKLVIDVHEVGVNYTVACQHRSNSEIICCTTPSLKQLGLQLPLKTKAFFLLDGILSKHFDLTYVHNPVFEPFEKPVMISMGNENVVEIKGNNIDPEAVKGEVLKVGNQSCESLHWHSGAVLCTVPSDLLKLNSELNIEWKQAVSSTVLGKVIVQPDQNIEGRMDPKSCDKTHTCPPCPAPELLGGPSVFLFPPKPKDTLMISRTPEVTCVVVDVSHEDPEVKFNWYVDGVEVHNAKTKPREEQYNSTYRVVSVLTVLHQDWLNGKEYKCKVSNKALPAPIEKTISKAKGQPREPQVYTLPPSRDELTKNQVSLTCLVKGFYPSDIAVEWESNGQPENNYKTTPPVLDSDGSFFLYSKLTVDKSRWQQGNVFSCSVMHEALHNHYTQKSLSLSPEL
T1 sequence (P16056 25-306 limits assumed, change not shown): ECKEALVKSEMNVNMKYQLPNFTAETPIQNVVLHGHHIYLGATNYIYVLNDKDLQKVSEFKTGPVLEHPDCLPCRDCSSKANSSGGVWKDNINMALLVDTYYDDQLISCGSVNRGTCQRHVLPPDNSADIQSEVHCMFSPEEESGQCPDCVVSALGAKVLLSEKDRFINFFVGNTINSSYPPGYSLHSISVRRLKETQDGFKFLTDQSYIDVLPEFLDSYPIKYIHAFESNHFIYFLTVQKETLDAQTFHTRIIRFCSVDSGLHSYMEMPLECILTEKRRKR

Substance | tumour to normal ratio (HCT-15 tumours) | visual identification of tumour against background (HCT-15 tumours) | binding to mouse cMet (mouse cMet/Fc chimera)
Ac-TGECTCPYWEFRPCECGSYSGAGGGK(ϵ-Cy5**)-NH2 (Ac-TGECTCPYWEFRPCECGSYSGAGGGK(Cy5∗∗)-NH2; cysteine pairing not given here; reading uncertain; also: printed as Ac-TGECTCPYWEFRPCECGSYSGAGGGK(ϵ-Cy5**)-NH2) [Compound 7, negative control] | did not discriminate between tumour and background | nothing was discernible against background | 
Cys4-16, 6-14; Ac-Ala-Gly-Ser-Cys-Tyr-Cys-Ser-Gly-Pro-Pro-Arg-Phe-Glu-Cys-Trp-Cys-Tyr-Glu-Thr-Glu-Gly-Thr-Gly-Gly-Gly-Lys(Cy5)-NH2 (Ac-AGSCYCSGPPRFECWCYETEGTGGGK(Cy5)-NH2; disulfide 6-14, 4-16) [Compound 3] |  |  | no binding
